The target in one series is T1, UapA (Aspergillus nidulans, UniProt Q07307).
T1 construct: full-length in native germinating conidiospores; GFP-tagged UapA under native promoter used for localization (functionally replaces untagged); homodimer
The experiment in a line: radiolabelled uptake in germinating conidiospores. The format is cell-based. The conditions noted are these: apparent Km; wild-type lipid background; [8-3H]-xanthine 0.1 μM with unlabelled substrate 0.5-1000 μM; pH 6.8, 37 °C; labelled compound; background of strain lacking transporter subtracted; read-out: Xanthine Uptake Kinetics / Km. The text has this: radiolabelled uptake in germinating conidiospores on UapA

Substrate in series [1]: Nc1ncnc2nc[nH]c12
The experiment in a line: radiolabelled uptake in germinating conidiospores. The format is cell-based, Aspergillus nidulans. The conditions noted are these: apparent Km, wild-type lipid background, [2,8-3H]-adenine 0.1 μM with unlabelled substrate 0.5-1000 μM, pH 6.8, 37 °C, labelled compound, background of strain lacking transporter subtracted. The text has this: radiolabelled uptake in germinating conidiospores on AzgA

Here are results for two molecules from PMC8304608, “Impact of Membrane Lipids on UapA and AzgA Transporter Subcellular Localization and Activity in Aspergillus nidulans” (Journal of Fungi, 2021).

T1 sequence (Q07307 whole entry): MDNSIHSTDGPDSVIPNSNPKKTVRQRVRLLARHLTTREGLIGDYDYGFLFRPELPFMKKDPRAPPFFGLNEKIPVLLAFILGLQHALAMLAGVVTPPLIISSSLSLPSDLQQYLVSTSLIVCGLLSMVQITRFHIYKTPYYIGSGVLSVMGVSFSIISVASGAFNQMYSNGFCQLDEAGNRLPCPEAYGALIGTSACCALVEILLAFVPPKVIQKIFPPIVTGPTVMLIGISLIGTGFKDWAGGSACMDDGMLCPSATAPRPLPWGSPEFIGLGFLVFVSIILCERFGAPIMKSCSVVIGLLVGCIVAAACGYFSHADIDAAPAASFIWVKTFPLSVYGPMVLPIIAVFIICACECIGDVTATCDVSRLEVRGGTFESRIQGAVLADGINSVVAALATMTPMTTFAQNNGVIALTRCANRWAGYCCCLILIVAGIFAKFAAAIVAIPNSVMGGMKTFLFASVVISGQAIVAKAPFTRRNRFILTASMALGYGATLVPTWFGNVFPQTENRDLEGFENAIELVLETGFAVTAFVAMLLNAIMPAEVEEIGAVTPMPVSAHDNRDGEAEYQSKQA

Regarding `O=c1[nH]c(=O)c2[nH]cnc2[nH]1` [xanthine], the Km on UapA turned out to be 5 ± 1 µM.

B1: AzgA (Aspergillus nidulans) (protein)
chain: MGYAEWIGRTNAAVARSPVGRWFRLEGSGHPRERKGAYFFTELRAGLATFFAMAYIISVNANITSDTGGTCVCPAEDLATACDNNTEYLLCKQEVNRDLVTATAAIAAIASFFLGLLANLPVALAPGMGLNAYFAYTVVGHHGTGLIPYSLAVTAVFVEGWIFLGLTLLGIRQWLARAIPASIKLATGAGIGLYLTLIGLSYSAGLGVVQGGTSSPIQLAGCASDTFGDDGLCPSSEKMRNPTMWIGIFCGGVFTVFLMMYRVKGAVIAGILLVSIISWPRPTPVTYFPHTETGDSSFDFFKKVVTFHPIQHTLVAQEWNISSNGGQFGLALITFLYVDILDATGTLYSMAKFAGAMDERTQDFEGSAMAYMVDAICISIGSLFGSPPVTAFVESGAGISEGGKTGLTSCMTGICFFIAVFFAPIFASIPPWATGSTLVIVGSMMMHATLEINWRYLGDAVPAFLTISLMPFTYSIADGLIAGILSYILINGGVWIVAKLTGGRISPPNREEEHEPWTWKIPGGFFPPWLVRAVHGKKDFWRAEDDANDLSLGVMPHGSLSSQDRAGEKLASSKEQVTEK
notes: full-length in native germinating conidiospores; GFP-tagged AzgA under native promoter used for localization (functionally replaces untagged)
For B1, the Km in series [1] is 3 ± 1 µM.
